# Data from US11357779B2 (G1 Therapeutics, Inc., priority 2018, dated 2022).
# “Also recorded” adds a separate entry of the source.
# Assays:
# [1] = Crystallization and slurry experiments, morphic forms of Compound II (XRPD, characterization); assay type: physicochemical; details: morphic forms (XRPD patterns) of Compound II
# Experimental: Eleven unique XRPD patterns (Form A-Form K) of Compound II were obtained from crystallization and slurry experiments using various solvents.
# Forms A, B, and D were evaluated as solid state forms.
# [2] = TG and TG-IR analysis of Form B; assay type: physicochemical; details: TG-IR
# Experimental: The TG analyses were performed using a TA Instrument Q5000 thermogravimetric analyzer. Temperature calibration was performed using nickel and Alumel. The sample was placed in a platinum pan and inserted into the TG furnace. The furnace was heated under a nitrogen purge to 350° C. at a rate of 10° C./min.
# Thermogravimetric infrared (TG-IR) analysis was performed on a TA Instruments Q5000 IR thermogravimetric (TG) analyzer interfaced to a Magna-IR 560@ Fourier transform infrared (FT-IR) spectrophotometer (Thermo Nicolet) equipped with an Ever-Glo mid/far IR source, a potassium bromide (KBr) beamsplitter, and a mercury cadmium telluride (MCT-A) detector. The FT-IR wavelength verification was performed using polystyrene, and the TG calibration standards were nickel and Alumel™. The sample was placed in a platinum sample pan and the pan was inserted into the TG furnace. The TG instrument was started first, immediately followed by the FT-IR instrument. The TG instrument was operated under a flow of helium at 90 and 10 cc/minute for the purge and balance, respectively. The furnace was heated under helium at a rate of 20° C./minute to a final temperature of approximately 140° C. IR spectra were collected approximately every 32 seconds for approximately 7.5 minutes. Each IR spectrum represents 32 co-added scans collected at a spectral resolution of 4 cm-1. Volatiles were identified from a search of the High Resolution Nicolet Vapor Phase spectral library.
# A TG-IR experiment was carried out on pure Form B (Sample 11 from the small-scale slurry experiments) at […] in an effort to investigate the stability of Form B at elevated temperature by monitoring potential release of hydrogen chloride.
# [3] = Dynamic vapor sorption (moisture sorption) experiment; details: for % wt change at 60% RH / % wt change at 90% RH: DVS; for stability in the moisture sorption experiment (XRPD of dried sample): after DVS; for stability in the moisture sorption experiment (XRPD of dried sample) / XRPD (post DVS): dried at 60° C. and 0% RH; for XRPD (post DVS): after moisture sorption experiment
# Experimental: Dynamic vapor sorption experiments were performed on Form A, Form B, and Form D. Table 103 provides the results of the DVS experiment.
# [4] = Stability study under thermal stress, 60° C. for 7 days; assay type: physicochemical
# Experimental: Forms A, B, and D were stored in an oven maintained at 60° C. for 7 days.
# [5] = Vacuum drying experiments of Form B; assay type: physicochemical; details: for Weight Loss (calculated by weight before and after drying): Vacuum oven
# [6] = Vacuum drying experiments of Form B; assay type: physicochemical; details: for Weight Loss (calculated by weight before and after drying): Vacuum oven; for XRPD Result: after Vacuum oven
# From the text: Weighted amounts of impure Form B and pure Form B samples from the previous experiments (Samples 14, 8, 11, 19, 21, and 23) were vacuum dried at ambient or elevated temperatures using various vacuum levels from approximately 14 in Hg up 27-28 in Hg. The resulting materials were weighted out prior to submission for XRPD analysis.
# The XRPD pattern of the resulting material was consistent with Form B, however, tiny shifting in a few peak positions in the XRPD pattern was observed (FIG. 26).
# [7] = Solubility estimate by aliquot addition with visual observation; assay type: physicochemical
# Experimental: Solubility estimates of impure Form B were attempted in various predominantly HCl acidic aqueous acetone solvent mixtures using an aliquot addition method that involved visual observation. Aliquots of various solvents or diluent/organic solvent mixtures were added to measured amounts of impure Form B with agitation (typically sonication) at ambient temperature until complete dissolution was achieved, as judged by visual observation. Solubilities were calculated based on the total solvent used to give a solution; actual solubilities may be greater because of the volume of solvent portions utilized or a slow rate of dissolution. […] If dissolution occurred at the first aliquot, the value was reported as “>”. Due to the haziness of the obtained samples, effective solubility estimates were difficult to discern.
# [8] = 0.1M HCl:acetone 20:80, ambient
# [9] = 0.5M HCl:acetone 10:90, ambient
# [10] = 0.5M HCl:acetone 20:80, ambient
# [11] = 1.0M HCl:acetone 75:25, ambient
compound,measurement,setting,value
CC(C)N1CCN(c2ccc(Nc3ncc4cc5n(c4n3)C3(CCCCC3)CNC5=O)nc2)CC1.Cl.Cl [A],Possible Form,[1],Hydrate
CC(C)N1CCN(c2ccc(Nc3ncc4cc5n(c4n3)C3(CCCCC3)CNC5=O)nc2)CC1.Cl.Cl [B],Possible Form,[1],Hydrate
CC(C)N1CCN(c2ccc(Nc3ncc4cc5n(c4n3)C3(CCCCC3)CNC5=O)nc2)CC1.Cl.Cl [C],Possible Form,[1],EtOAc
"CC(C)N1CCN(c2ccc(Nc3ncc4cc5n(c4n3)C3(CCCCC3)CNC5=O)nc2)CC1.Cl.Cl [Compound II, Form B]",Weight (%),"[2]; 0.38 min, 36.60 ° C.",99.93%
same,Weight (%),"[2]; 0.55 min, 40.20 ° C.",99.87%
same,Weight (%),"[2]; 0.73 min, 43.80 ° C.",99.77%
same,Weight (%),"[2]; 0.90 min, 47.40 ° C.",99.63%
same,Weight (%),"[2]; 1.08 min, 51.00 ° C.",99.46%
same,Weight (%),"[2]; 1.25 min, 54.60 ° C.",99.26%
same,Weight (%),"[2]; 1.43 min, 58.20 ° C.",99.03%
same,Weight (%),"[2]; 1.61 min, 61.80 ° C.",98.79%
same,Weight (%),"[2]; 1.78 min, 65.40 ° C.",98.52%
same,Weight (%),"[2]; 1.96 min, 69.00 ° C.",98.22%
same,Weight (%),"[2]; 2.14 min, 72.60 ° C.",97.86%
same,Weight (%),"[2]; 2.32 min, 76.20 ° C.",97.44%
same,Weight (%),"[2]; 2.50 min, 79.80 ° C.",96.95%
same,Weight (%),"[2]; 2.68 min, 83.40 ° C.",96.45%
same,Weight (%),"[2]; 2.86 min, 87.00 ° C.",95.97%
same,Weight (%),"[2]; 3.04 min, 90.60 ° C.",95.57%
same,Weight (%),"[2]; 3.23 min, 94.20 ° C.",95.23%
same,Weight (%),"[2]; 3.41 min, 97.80 ° C.",94.95%
same,Weight (%),"[2]; 3.59 min, 101.40 ° C.",94.71%
same,Weight (%),"[2]; 3.77 min, 105.00 ° C.",94.50%
same,Weight (%),"[2]; 3.95 min, 108.60 ° C.",94.32%
same,Weight (%),"[2]; 4.13 min, 112.20 ° C.",94.18%
same,Weight (%),"[2]; 4.31 min, 115.80 ° C.",94.06%
same,Weight (%),"[2]; 4.68 min, 123.00 ° C.",93.86%
same,Weight (%),"[2]; 4.86 min, 126.60 ° C.",93.78%
same,Weight (%),"[2]; 5.04 min, 130.20 ° C.",93.71%
same,Weight (%),"[2]; 5.22 min, 133.80 ° C.",93.65%
CC(C)N1CCN(c2ccc(Nc3ncc4cc5n(c4n3)C3(CCCCC3)CNC5=O)nc2)CC1.Cl.Cl [D],Possible Form,[1],Hydrate
CC(C)N1CCN(c2ccc(Nc3ncc4cc5n(c4n3)C3(CCCCC3)CNC5=O)nc2)CC1.Cl.Cl [E],Possible Form,[1],Acetone
CC(C)N1CCN(c2ccc(Nc3ncc4cc5n(c4n3)C3(CCCCC3)CNC5=O)nc2)CC1.Cl.Cl [F],Possible Form,[1],Unstable
CC(C)N1CCN(c2ccc(Nc3ncc4cc5n(c4n3)C3(CCCCC3)CNC5=O)nc2)CC1.Cl.Cl [Form A],moisture adsorbed,[3]; 60% RH,14.9 wt %
same,moisture adsorbed,[3]; 90% RH,15.8 wt %
same,% wt change at 60% RH,[3]; 60% RH,14.9 % wt
same,% wt change at 90% RH,[3]; 90% RH,15.8 % wt
same,stability in the moisture sorption experiment (XRPD of dried sample),[3],unstable; also recorded: not stable
same,XRPD (post DVS),[3],Form K
same,XRPD pattern after thermal stress,[4],A new pattern was found; also recorded: converted to a new Form
CC(C)N1CCN(c2ccc(Nc3ncc4cc5n(c4n3)C3(CCCCC3)CNC5=O)nc2)CC1.Cl.Cl [Form C],XRPD pattern after thermal stress,[4],remained unchanged
CC(C)N1CCN(c2ccc(Nc3ncc4cc5n(c4n3)C3(CCCCC3)CNC5=O)nc2)CC1.Cl.Cl [Form D],moisture adsorbed,[3]; 60% RH,4.4 wt %
same,% wt change at 60% RH,[3]; 60% RH,4.4 % wt
same,% wt change at 90% RH,[3]; 90% RH,17.0 % wt
same,stability in the moisture sorption experiment (XRPD of dried sample),[3],unstable; also recorded: not stable
same,XRPD (post DVS),[3],Form K
same,XRPD pattern after thermal stress,[4],No change in the XRPD pattern
CC(C)N1CCN(c2ccc(Nc3ncc4cc5n(c4n3)C3(CCCCC3)CNC5=O)nc2)CC1.Cl.Cl [G],Possible Form,[1],Anhydrate
CC(C)N1CCN(c2ccc(Nc3ncc4cc5n(c4n3)C3(CCCCC3)CNC5=O)nc2)CC1.Cl.Cl [H],Possible Form,[1],n-PrOH
CC(C)N1CCN(c2ccc(Nc3ncc4cc5n(c4n3)C3(CCCCC3)CNC5=O)nc2)CC1.Cl.Cl [Sample 8],Weight Loss (calculated by weight before and after drying),"[5]; ~40° C., 15 h (~29.5 in Hg)",Weight loss: 7.4%
same,XRPD Result,"[5]; after Vacuum oven, ~40° C., 15 h (~29.5 in Hg)",New crystalline
CC(C)N1CCN(c2ccc(Nc3ncc4cc5n(c4n3)C3(CCCCC3)CNC5=O)nc2)CC1.Cl.Cl [Sample 11],Weight Loss (calculated by weight before and after drying),"[6]; 22° C., 0.5 h (~14 in Hg)",Weight loss: 1.8%
same,XRPD Result,"[6]; 22° C., 0.5 h (~14 in Hg)",Form B tiny peak
CC(C)N1CCN(c2ccc(Nc3ncc4cc5n(c4n3)C3(CCCCC3)CNC5=O)nc2)CC1.Cl.Cl [Sample 14],Weight Loss (calculated by weight before and after drying),"[5]; 23° C., 2 h (~29.5 in Hg)",Weight loss: 6.8%
same,Weight Loss (calculated by weight before and after drying),"[5]; ~40° C., 15 h (~29.5 in Hg)",Weight loss: 7.5%
CC(C)N1CCN(c2ccc(Nc3ncc4cc5n(c4n3)C3(CCCCC3)CNC5=O)nc2)CC1.Cl.Cl [Sample 19],Weight Loss (calculated by weight before and after drying),"[6]; RT, 1.0 h (~27-28 in Hg)",Weight loss: 9.7%
same,XRPD Result,"[6]; RT, 1.0 h (~27-28 in Hg)",Form B + broad
CC(C)N1CCN(c2ccc(Nc3ncc4cc5n(c4n3)C3(CCCCC3)CNC5=O)nc2)CC1.Cl.Cl [Sample 21],Weight Loss (calculated by weight before and after drying),"[6]; 22° C., 0.5 h (~28 in Hg)",Weight loss: 30.6%
CC(C)N1CCN(c2ccc(Nc3ncc4cc5n(c4n3)C3(CCCCC3)CNC5=O)nc2)CC1.Cl.Cl [Sample 23],Weight Loss (calculated by weight before and after drying),"[6]; 22° C., 1.0 h (~27-28 in Hg)",Weight loss: 4.7%
same,XRPD Result,"[6]; 22° C., 1.0 h (~27-28 in Hg)",Most likely Form B
CC(C)N1CCN(c2ccc(Nc3ncc4cc5n(c4n3)C3(CCCCC3)CNC5=O)nc2)CC1.Cl.Cl [impure Form B],Observation,[7]; [8],solids remained
same,Solubility,[7]; [8],<1000 µg/mL
same,Observation,[7]; [9],solids remained
same,Solubility,[7]; [9],<1000 µg/mL
same,Observation,[7]; [10],solids remained
same,Solubility,[7]; [10],<1000 µg/mL
same,Observation,"[7]; 1M HCl:acetone 5:95, ambient",solids remained
same,Solubility,"[7]; 1M HCl:acetone 5:95, ambient",<1000 µg/mL
same,Observation,"[7]; 1M HCl:acetone 10:90, ambient",solids remained
same,Solubility,"[7]; 1M HCl:acetone 10:90, ambient",<1000 µg/mL
same,Observation,"[7]; 1M HCl:acetone 20:80, ambient",solids remained
same,Solubility,"[7]; 1M HCl:acetone 20:80, ambient",<1000 µg/mL
same,Observation,"[7]; 1M HCl:acetone 33:67, ambient",hazy solution
same,Solubility,"[7]; 1M HCl:acetone 33:67, ambient",2000 µg/mL
same,Observation,"[7]; 1M HCl:acetone 50:50, ambient",hazy solution
same,Solubility,"[7]; 1M HCl:acetone 50:50, ambient",4000 µg/mL
same,Observation,"[7]; 1M HCl:acetone 60:40, ambient",hazy solution
same,Solubility,"[7]; 1M HCl:acetone 60:40, ambient",4000 µg/mL
same,Observation,"[7]; 1M HCl:acetone 67:33, ambient",hazy solution
same,Solubility,"[7]; 1M HCl:acetone 67:33, ambient",6000 µg/mL
same,Observation,[7]; [11],hazy solution
same,Solubility,[7]; [11],7000 µg/mL
same,Observation,"[7]; 2.0M HCl, ambient",hazy solution
same,Solubility,"[7]; 2.0M HCl, ambient",4000 µg/mL
same,Observation,"[7]; 5.0M HCl, ambient",hazy solution
same,Solubility,"[7]; 5.0M HCl, ambient",3000 µg/mL
same,Observation,"[7]; 5.0M HCl:water 1:2, ambient",clear solution
same,Solubility,"[7]; 5.0M HCl:water 1:2, ambient",7000 µg/mL
same,Solubility,"[7]; HCl acidic aqueous acetone solvent mixtures, ambient temperature, visual estimate",3000 to 7000 µg/mL
same,Observation,"[7]; Water, ambient",solids remained
same,Solubility,"[7]; Water, ambient",<7000 µg/mL
same,Observation,"[7]; Water:acetone 1:2, ambient",hazy solution
same,Solubility,"[7]; Water:acetone 1:2, ambient",3000 µg/mL
same,Observation,"[7]; Water:acetone 3:1, ambient",solids remained
same,Solubility,"[7]; Water:acetone 3:1, ambient",<3000 µg/mL
